The values that follow come from ChEMBL document CHEMBL5465560, “Selectivity Literature for EUbOPEN Chemogenomic Library” (2024).

Assay [1] has as its target T1, SNF-related serine/threonine-protein kinase (Homo sapiens) (UniProt Q9NRH2).
T1 sequence (whole entry): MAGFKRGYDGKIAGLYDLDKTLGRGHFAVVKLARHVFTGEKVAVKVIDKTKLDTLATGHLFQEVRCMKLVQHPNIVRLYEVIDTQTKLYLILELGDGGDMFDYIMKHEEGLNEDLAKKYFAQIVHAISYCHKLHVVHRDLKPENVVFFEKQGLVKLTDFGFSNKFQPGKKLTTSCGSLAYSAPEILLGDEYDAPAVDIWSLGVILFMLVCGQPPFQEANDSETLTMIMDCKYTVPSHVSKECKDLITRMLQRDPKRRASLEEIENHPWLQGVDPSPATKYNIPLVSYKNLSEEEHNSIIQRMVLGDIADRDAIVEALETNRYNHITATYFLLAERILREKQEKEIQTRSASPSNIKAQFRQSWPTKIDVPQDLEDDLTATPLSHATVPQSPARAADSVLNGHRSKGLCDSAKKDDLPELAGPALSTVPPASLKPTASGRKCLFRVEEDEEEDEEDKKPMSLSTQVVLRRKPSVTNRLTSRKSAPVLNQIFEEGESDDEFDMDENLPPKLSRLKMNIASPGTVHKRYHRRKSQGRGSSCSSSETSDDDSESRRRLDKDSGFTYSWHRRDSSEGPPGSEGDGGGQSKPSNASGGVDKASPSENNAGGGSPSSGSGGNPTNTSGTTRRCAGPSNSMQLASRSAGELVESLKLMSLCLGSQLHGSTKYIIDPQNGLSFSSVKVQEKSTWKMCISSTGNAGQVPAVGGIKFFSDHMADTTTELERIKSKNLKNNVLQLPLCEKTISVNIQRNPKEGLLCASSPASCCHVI
Kind of assay: Selectivity interaction (KinomeScan (DiscoverX)) EUB0000595a SNRK. As to conditions: at 10 µM.

Assay [2] has as its target 1-phosphatidylinositol 3-phosphate 5-kinase (Homo sapiens) (UniProt Q9Y2I7). Nature of the assay: Selectivity interaction (ActivX KiNativ screen (ex vivo kinase selectivity in human PBMCs)) EUB0001619a PIKFYVE. The format is cell-based. As to conditions: PBMC, at 1 µM.
The target of assay [3] is Protein-tyrosine kinase 2-beta (Homo sapiens) (UniProt Q14289). The following applies: at 10 µM.
In assay [4] the target is T2, Inhibitor of nuclear factor kappa-B kinase subunit epsilon (Homo sapiens) (UniProt Q14164).
T2 sequence (whole entry): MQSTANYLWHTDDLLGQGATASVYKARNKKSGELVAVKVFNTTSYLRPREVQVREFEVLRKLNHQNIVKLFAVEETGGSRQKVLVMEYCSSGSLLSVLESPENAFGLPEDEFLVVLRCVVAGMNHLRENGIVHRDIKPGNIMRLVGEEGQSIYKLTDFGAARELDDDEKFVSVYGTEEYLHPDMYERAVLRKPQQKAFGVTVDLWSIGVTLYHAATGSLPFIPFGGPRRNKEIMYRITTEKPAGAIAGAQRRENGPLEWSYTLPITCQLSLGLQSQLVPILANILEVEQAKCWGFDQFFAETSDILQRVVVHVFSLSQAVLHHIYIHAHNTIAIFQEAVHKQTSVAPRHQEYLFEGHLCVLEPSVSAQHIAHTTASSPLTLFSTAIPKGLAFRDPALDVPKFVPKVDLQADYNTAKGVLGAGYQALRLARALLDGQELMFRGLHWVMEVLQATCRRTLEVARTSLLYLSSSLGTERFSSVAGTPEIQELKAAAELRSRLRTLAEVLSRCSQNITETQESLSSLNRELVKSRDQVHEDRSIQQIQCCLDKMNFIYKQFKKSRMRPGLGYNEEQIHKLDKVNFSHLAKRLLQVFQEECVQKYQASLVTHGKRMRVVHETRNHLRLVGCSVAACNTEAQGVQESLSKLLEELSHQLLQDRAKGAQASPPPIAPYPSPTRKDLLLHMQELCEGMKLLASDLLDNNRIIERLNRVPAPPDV
Kind of assay: Selectivity interaction (KinomeScan (DiscoverX)) EUB0000666a IKBKE. As to conditions: at 10 µM.

The target in assay [5] is Calcium/calmodulin-dependent protein kinase type II subunit delta (Homo sapiens) (UniProt Q13557). Nature of the assay: Selectivity interaction (KinomeScan (DiscoverX)) EUB0000229b CAMK2D. As to conditions: at 10 µM.
Assay [6] concerns the target Receptor-interacting serine/threonine-protein kinase 2 (Homo sapiens, UniProt O43353). Nature of the assay: Selectivity interaction (Competition-binding assay (DiscoverX)) EUB0000229b RIPK2.
Assay [7] concerns the target T3, MAP kinase-activated protein kinase 5 (Homo sapiens) (UniProt Q8IW41).
T3 sequence (whole entry): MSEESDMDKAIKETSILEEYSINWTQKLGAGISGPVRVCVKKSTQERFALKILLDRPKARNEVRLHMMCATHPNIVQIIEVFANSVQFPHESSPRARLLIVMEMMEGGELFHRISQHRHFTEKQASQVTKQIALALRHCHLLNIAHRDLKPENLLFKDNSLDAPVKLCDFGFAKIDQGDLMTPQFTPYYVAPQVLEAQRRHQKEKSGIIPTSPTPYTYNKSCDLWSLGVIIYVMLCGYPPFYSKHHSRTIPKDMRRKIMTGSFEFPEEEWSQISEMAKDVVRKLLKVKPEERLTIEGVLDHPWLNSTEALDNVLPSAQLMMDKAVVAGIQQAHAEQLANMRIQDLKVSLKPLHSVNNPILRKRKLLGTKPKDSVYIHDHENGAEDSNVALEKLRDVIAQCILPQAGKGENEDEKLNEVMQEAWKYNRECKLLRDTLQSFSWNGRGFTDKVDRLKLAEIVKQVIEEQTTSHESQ
Nature of the assay: Selectivity interaction (KinomeScan (DiscoverX)) EUB0000229b MAPKAPK5. The following applies: at 10 µM.

Broadly, the Kd is a measure of binding affinity in units of concentration. A high value points to lower affinity.

Chain of 1-phosphatidylinositol 3-phosphate 5-kinase (Homo sapiens) (Q9Y2I7 whole entry): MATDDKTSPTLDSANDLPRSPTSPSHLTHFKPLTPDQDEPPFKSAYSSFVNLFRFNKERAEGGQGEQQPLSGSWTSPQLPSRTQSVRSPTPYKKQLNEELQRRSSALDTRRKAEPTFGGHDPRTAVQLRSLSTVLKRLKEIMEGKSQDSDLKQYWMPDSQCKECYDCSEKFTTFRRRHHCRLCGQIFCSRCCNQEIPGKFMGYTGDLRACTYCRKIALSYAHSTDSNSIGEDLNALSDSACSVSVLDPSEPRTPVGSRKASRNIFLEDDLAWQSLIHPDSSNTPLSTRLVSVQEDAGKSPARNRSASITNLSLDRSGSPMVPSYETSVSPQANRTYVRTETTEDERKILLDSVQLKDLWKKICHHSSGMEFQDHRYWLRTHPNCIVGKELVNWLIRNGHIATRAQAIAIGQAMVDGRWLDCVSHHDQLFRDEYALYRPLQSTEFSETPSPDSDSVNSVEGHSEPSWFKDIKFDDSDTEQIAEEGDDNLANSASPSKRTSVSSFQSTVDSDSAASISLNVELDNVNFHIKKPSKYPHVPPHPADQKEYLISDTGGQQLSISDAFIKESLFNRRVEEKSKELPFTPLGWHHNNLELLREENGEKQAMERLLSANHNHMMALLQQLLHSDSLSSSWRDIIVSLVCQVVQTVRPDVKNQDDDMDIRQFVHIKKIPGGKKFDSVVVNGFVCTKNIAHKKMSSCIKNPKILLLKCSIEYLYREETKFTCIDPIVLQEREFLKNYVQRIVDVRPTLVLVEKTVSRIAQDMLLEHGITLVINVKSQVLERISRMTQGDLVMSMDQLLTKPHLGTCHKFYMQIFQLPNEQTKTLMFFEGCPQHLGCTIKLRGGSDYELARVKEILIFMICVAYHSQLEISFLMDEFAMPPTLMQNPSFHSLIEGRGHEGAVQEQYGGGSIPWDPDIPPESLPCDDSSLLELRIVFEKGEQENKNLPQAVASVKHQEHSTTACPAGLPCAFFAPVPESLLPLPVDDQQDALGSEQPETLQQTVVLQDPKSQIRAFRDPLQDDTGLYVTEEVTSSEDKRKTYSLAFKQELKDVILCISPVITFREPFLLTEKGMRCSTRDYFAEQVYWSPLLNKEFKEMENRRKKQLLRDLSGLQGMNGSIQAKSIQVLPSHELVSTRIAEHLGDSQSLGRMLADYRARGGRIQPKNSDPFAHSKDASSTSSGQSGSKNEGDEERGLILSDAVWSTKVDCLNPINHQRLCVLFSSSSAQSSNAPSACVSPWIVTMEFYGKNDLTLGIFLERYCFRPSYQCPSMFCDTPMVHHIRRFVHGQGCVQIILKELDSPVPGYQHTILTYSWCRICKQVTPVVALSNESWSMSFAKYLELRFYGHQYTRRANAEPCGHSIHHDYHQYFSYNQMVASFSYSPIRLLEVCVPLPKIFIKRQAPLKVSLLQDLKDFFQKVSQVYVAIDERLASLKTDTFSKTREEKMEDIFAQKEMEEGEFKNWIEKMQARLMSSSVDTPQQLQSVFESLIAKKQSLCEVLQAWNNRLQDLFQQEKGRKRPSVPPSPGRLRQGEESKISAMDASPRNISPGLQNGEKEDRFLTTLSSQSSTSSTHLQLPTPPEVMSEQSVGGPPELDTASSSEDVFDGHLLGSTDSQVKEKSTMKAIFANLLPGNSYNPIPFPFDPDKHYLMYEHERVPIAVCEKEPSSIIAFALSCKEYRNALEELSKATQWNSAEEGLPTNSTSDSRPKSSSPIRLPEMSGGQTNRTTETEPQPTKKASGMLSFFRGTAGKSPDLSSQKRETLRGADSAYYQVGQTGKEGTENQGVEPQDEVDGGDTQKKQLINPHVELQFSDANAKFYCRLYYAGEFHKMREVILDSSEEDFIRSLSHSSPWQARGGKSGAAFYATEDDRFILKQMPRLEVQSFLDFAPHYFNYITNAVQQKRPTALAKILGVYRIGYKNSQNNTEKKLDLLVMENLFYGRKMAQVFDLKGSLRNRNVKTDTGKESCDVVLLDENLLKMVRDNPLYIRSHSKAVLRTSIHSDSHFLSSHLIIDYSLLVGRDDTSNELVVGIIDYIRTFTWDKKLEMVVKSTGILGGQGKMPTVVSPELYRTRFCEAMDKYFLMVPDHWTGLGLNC
Chain of Protein-tyrosine kinase 2-beta (Homo sapiens) (Q14289 whole entry, looked up): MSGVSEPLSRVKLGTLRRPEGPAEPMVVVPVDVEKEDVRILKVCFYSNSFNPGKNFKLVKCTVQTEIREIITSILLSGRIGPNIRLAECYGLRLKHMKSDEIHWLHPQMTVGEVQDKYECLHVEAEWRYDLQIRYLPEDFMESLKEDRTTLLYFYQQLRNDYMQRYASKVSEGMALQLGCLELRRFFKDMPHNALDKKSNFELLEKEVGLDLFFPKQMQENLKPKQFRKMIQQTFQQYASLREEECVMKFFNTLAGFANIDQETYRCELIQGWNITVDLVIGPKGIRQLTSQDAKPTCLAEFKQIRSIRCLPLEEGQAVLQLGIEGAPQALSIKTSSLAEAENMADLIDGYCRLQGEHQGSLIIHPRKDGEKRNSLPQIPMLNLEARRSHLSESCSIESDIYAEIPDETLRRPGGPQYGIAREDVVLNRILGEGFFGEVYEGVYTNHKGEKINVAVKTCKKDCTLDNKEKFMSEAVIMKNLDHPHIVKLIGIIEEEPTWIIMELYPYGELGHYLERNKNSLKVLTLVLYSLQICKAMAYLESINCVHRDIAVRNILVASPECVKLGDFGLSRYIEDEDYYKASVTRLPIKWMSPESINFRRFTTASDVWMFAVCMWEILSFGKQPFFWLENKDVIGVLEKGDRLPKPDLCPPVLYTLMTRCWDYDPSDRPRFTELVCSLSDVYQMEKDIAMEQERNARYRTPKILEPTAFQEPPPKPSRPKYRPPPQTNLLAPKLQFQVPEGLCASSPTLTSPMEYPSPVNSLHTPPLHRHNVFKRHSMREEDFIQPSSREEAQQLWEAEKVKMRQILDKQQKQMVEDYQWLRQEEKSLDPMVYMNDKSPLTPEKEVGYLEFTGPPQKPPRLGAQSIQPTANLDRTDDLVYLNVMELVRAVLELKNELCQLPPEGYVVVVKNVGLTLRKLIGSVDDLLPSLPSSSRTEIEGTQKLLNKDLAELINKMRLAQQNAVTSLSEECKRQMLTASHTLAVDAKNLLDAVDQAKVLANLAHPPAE
Chain of Calcium/calmodulin-dependent protein kinase type II subunit delta (Homo sapiens) (Q13557 whole entry): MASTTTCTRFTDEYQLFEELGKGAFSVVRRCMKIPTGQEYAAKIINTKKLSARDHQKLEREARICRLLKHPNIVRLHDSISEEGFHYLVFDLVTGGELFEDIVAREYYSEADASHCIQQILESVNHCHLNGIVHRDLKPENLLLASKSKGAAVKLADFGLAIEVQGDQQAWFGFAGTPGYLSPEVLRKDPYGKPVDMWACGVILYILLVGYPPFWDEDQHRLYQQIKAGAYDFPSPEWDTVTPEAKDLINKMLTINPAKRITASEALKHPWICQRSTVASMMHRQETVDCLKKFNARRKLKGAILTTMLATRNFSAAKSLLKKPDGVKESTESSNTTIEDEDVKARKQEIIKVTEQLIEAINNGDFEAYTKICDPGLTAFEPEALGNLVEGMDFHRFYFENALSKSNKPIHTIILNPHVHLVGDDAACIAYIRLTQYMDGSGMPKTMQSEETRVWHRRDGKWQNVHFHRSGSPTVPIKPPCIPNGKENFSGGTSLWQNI
Chain of Receptor-interacting serine/threonine-protein kinase 2 (O43353 whole entry): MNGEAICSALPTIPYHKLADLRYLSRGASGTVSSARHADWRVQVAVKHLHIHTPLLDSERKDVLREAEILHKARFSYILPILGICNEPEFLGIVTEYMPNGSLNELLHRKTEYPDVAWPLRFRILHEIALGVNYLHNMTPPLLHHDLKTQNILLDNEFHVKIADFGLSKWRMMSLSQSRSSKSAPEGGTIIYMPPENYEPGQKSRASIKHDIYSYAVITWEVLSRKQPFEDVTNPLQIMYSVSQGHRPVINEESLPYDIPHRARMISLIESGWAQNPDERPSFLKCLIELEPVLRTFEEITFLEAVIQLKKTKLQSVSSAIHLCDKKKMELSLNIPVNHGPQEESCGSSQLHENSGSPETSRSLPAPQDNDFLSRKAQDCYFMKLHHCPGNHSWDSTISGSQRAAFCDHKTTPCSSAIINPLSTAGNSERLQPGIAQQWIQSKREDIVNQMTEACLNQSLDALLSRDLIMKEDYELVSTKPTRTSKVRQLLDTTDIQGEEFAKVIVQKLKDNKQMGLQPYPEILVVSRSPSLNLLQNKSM

`COCC(=O)NC/C=C/c1ccc2ncnc(Nc3ccc(Oc4ccc(C)nc4)c(C)c3)c2c1` [CP-724714] displayed a % of control in assay [1] of 71%.
As to `N#Cc1cccc(-c2c[nH]c3ncnc(N4CCOCC4)c23)c1`, the % of inhibition in assay [2] turned out to be 22%.
With `CCN(CC)CCCCNc1ncc2cc(-c3cc(OC)cc(OC)c3)c(NC(=O)NC(C)(C)C)nc2n1`, the % of control in assay [3] turned out to be 100%.
Regarding `O=C(NOC[C@H](O)CO)c1ccc(F)c(F)c1Nc1ccc(I)cc1F`, the % of control in assay [4] was found to be 100%.
For `COc1cc(N(C)c2ccnc3ccc(C(F)(F)F)cc23)cc(OC)c1OC`, the % binding in assay [5] was 95%; in assay [7] it was 63%. Further, the Kd in assay [6] is 4.9 µM.
